How the values were obtained:
[1] = test system: skin immediately surrounding the tumor; assay: γH2AX foci in skin surrounding subcutaneous Calu-6 tumor; assay type: in vivo, mouse; settings: 5 hours after 3.3 Gy, 30 mg/kg oral, P = 0.09
Description: Subcutaneous non–small cell lung cancer xenografts were generated in CD-1 nude or BALB/c nude mice using A549 and Calu-6 cells, respectively, as previously described ([53]). When tumors reached 100 mm^3, mice were randomized into 4 groups (n = 7–9 per group) to receive (a) vehicle (orally) 30 minutes before mock radiation, (b) NU5455 (30 mg/kg orally) 30 minutes before mock radiation, (c) targeted tumor radiation at a single dose of 3.3 or 10 Gy, or (d) NU5455 (30 mg/kg orally) 30 minutes before 3.3 Gy or 10 Gy targeted tumor radiation. […]
(§1) NSCLC subcutaneous xenografts were generated as previously described ( 53). […] Mouse weights and tumor volumes (1/2 x length x width x depth) were measured three times a week.
(§2) Targeted radiotherapy in subcutaneous and orthotopic NSCLC xenograft models When subcutaneous xenografts reached 100 mm3, mice were randomized into four groups (n = 7 - 11/group): (i) N-Methyl-2-pyrrolidone (NMP): 30% Encapsin : PEG400 (1:6:3 v/v/v) vehicle p.o. 30 minutes prior to mock radiation. […] The remaining mice were monitored for tumor growth until the sizes of tumo rs reached 400 mm 3 or up to 38 days after initiation of […]
Tissues were fixed in 4% paraformaldehyde (PFA) and paraffin -embedded. […] The percentage of γH2AX and 53BP1 positive nuclei in lung epithelial cells was quantified manually in normal lung samples across 5 randomly-chosen fields of view per […]

[2] = test system: orthotopic Calu-6 lung tumors; assay: orthotopic Calu-6 lung tumor with thoracic radiation, bioluminescent imaging; assay type: in vivo; settings: single dose 30 mg/kg + 10 Gy thoracic radiation
Description: Orthotopic lung xenografts were generated following a published protocol ([54]) with minor modifications. Briefly, CD-1 nude mice (Charles River Laboratories) were anesthetized with 2% isoflurane and placed in the right lateral decubitus position. Luciferase-expressing Calu-6 cells (1 × 10^6) in 50 μL of 50% (vol/vol) Matrigel were injected into the left lateral thorax at the lateral dorsal axillary line, 1.5 cm above the lower rib line. The needle was advanced 5 mm into the thorax. After injection, the mouse was turned to the left lateral decubitus position for 5 minutes. […]
as §1, §2
Tumor growth in the remaining mice was monitored by bioluminescent imaging on days 0, 4, 8 and 15 post-treatment. […] Data were analyzed using LivingImage software (PerkinElmer). […]

CN(C(=O)CN1CCOCC1)c1ccc2sc3c(-c4cccc5c(=O)cc(N6CC7CCC(C6)O7)oc45)cccc3c2c1 [NU5455] was tested, and the “radiation-induced γH2AX foci, fold augmented with NU5455” value [1] was 1.6 fold, the tolerability [2] was “well tolerated” and the “antitumor effect of radiation (time to 4-fold increase in bioluminescent signal)” value ([2]; CD-1 nude mice) was “enhanced the antitumor effect of the radiation”.
